Data on 2 molecules can be found in PMC10025480 (Frontiers in Pharmacology, 2023).

One data set deals with HBE cells (non-CF). The data set is described as follows: Short-circuit current (ISC) and transepithelial resistance, non-CF HBE. It is filed as cell-based, human. The following applies: for Inh172-sensitive ISC / amiloride-sensitive current / magnitude of response to amiloride / forskolin-stimulated current: after compound treatment; for change in transepithelial resistance: vehicle +108 ± 14. The method, then:
HBE cultured at air-liquid interface (ALI) for 14–21 days were mounted in Ussing chambers in symmetrical Ringers solution containing (in mM): 120 NaCl, 25 NaHCO3, 3.3 KH2PO4, 0.8 K2HPO4, 1.2 CaCl2, 1.2 MgCl2, and 10 glucose, and voltage clamped as described above. In some studies, HBE were pre-treated with IL-13 (10 ng/mL; Peprotech, United Kingdom) for 48 h to increase TMEM16A expression levels ([Caputo et al., 2008]). Amiloride (10 μM; apical) was used to block the spontaneous, ENaC-mediated current, whilst UTP (10 μM; apical) and forskolin (10 μM; apical and basolateral) were added to the bath solutions to activate Ca^2+ and cAMP-dependent anion secretory responses, respectively. Inh172 (30 μM; apical and basolateral) was also used to inhibit CFTR function. The TMEM16A blockers were added to the apical side of the Ussing chambers to evaluate effects on each of these currents.

A further data set relates to FRT-TMEM16Aabc cells. The data set is described as follows: Intracellular Ca2+ measurement (Calcium6), FRT-TMEM16Aabc cells. It is filed as cell-based. Particulars: 10 min pre-treatment. The method, then: CF-HBE cultured at air-liquid interface for 14–21 days were pre-treated with IL-13 (10 ng/mL; 48 h). CF-HBE were then loaded with the Ca^2+-sensitive fluorescent reporter dye, Calcium6 for 120 min at 37°C in Hanks balanced salt solution (HBSS) buffered with 20 mM HEPES (pH 7.4). […] The direct effects of apically administered TMEM16A blockers on [Ca^2+]i as well as effects on the subsequent responses to UTP were measured using a PHERAstar plate reader (BMG Lab Tech, United Kingdom). Equivalent measurements were performed in FRT-TMEM16Aabc cells that had been cultured in 96 well, clear bottom plastic plates and loaded with Calcium6 using the same protocol.

Another data set has as its system HBE cells. The data set is described as follows: Goblet cell formation (MUC5AC+ and acetylated α-tubulin+ stained area) in HBE. The data set is classed as cell-based, human. Particulars: for acetylated α-tubulin (ciliated) stained area / MUC5AC+ stained area (goblet cells): 96 h; for MUC5AC+ stained area (goblet cells): IL-13 naïve and IL-13 treated cultures. The method, then: HBE cultured at air-liquid interface for 14–21 days were treated with TMEM16A blockers ± IL-13 (10 ng/mL; basolateral) for 96 h to establish any effects on goblet cell numbers. At 48h, LDH levels in the media were measured according to the manufacturer’s instructions (Roche Cytotoxicity Detection Kit #11644793001), and blockers, IL-13 and media were refreshed. At 96 h, wells were fixed in 4% formaldehyde and were stained with antibodies to MUC5AC (45M1; Thermo Fisher, United Kingdom) and acetylated α-tubulin (6-11B-1; Sigma, United Kingdom) as previously described ([Danahay et al., 2015]; [Danahay et al., 2020b]) with secondary antibodies to enable fluorescence detection of both proteins (Alexa Fluor; Thermo Fisher, United Kingdom). The MUC5AC^+ stained area was visualised using a Zeiss Axiovert epifluorescence microscope with a motorised stage that was used to image the same 9 regions of interest on each insert. ImageJ was used to quantify the MUC5AC^+ and stained area per insert which was normalised to the vehicle control group. The process was repeated for the acetylated α-tubulin^+ stained area.

For data set [1], the system named is human vascular smooth muscle preparations. Particulars: ref Papp et al., 2019; cited from earlier work.
Details of data set [2]: method as in Papp et al., 2019. Particulars: PAH patients; ref Papp et al., 2019; cited from earlier work.
For a further data set, the target named is T1, hTMEM16Aacd (Homo sapiens, UniProt Q5XXA6).
T1 construct: expressed in transfected cells; host or cells: HEK cells
T1 sequence (Q5XXA6 1-986): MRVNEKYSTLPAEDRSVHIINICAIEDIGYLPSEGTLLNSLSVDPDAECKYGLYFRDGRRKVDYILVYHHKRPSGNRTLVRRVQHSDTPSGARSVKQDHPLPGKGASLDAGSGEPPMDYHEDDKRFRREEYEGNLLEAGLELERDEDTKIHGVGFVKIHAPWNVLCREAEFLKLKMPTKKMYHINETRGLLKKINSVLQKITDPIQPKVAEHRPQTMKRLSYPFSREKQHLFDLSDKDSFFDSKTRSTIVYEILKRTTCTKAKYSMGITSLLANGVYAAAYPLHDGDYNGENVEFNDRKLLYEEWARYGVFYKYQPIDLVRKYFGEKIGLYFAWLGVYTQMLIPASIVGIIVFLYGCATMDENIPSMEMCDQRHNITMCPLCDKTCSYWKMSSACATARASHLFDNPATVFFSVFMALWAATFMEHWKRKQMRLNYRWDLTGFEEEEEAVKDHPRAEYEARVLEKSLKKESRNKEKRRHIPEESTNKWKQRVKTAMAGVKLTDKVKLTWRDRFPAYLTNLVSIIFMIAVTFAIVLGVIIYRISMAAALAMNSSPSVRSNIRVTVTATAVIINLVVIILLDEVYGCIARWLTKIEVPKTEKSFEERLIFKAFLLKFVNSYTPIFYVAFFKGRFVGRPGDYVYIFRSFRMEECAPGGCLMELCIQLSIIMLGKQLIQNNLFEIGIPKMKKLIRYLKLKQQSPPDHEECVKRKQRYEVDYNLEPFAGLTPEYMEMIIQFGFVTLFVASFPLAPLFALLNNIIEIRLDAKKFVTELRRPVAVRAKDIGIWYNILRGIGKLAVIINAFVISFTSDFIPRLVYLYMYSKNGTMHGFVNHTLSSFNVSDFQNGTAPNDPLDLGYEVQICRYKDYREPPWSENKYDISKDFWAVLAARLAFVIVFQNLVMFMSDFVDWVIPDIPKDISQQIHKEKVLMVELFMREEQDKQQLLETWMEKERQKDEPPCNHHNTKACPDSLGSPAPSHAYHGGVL
The data set is described as follows: Whole-cell patch clamp (QPatch), HEK-hTMEM16Aacd cells. The data set is classed as cell-based. The method, then:
Whole-cell voltage-clamp recordings from FRT-hTMEM16Aabc, HEK-hTMEM16Aacd, and HEK293 cells were made using the QPatch planar patch clamp system as described previously ([Bill et al., 2015]; [Danahay et al, 2020a]). TMEM16A currents were assessed using chloride selective solutions with calculated free [Ca^2+]i tightly buffered at either 415 or 0 nM. Current rectification ratios were calculated by dividing the magnitude of the outward current at +90 mV by the magnitude of the inward current at −90 mV.

For data set [3], the system named is human bronchial smooth muscle. The following applies: cited from earlier work.
The subject of the next data set is HEK293 cells. The data set is described as follows: Whole-cell patch clamp (QPatch), parental HEK cells lacking TMEM16A. It is filed as cell-based. The following applies: compared with HEK-TMEM16Aacd cells at 0 nM [Ca2+]i. The method, then: Current rectification ratios were calculated by dividing the magnitude of the outward current at +90 mV by the magnitude of the inward current at −90 mV.

Structures are written as SMILES.

With `CCc1oc2ccccc2c1C(=O)c1cc(Br)c(O)c(Br)c1` [benzbromarone], in the data set on HBE cells (non-CF), the “Inh172-sensitive ISC” value is “attenuated”, the “amiloride-sensitive current / magnitude of response to amiloride” value was “attenuated”, the forskolin-stimulated current entry is listed as “attenuated” and the “change in transepithelial resistance” value is listed as “+170 ± 25 Ω cm^2”. Moreover, in the data set on HBE cells (non-CF) (apical), the “decline in the baseline ISC” value was determined as 50%. For the same molecule, in the data set with FRT-TMEM16Aabc cells, the “UTP-stimulated increase in [Ca2+]i” value is “significantly attenuated”. For the same molecule, in the data set on HBE cells, the “acetylated α-tubulin (ciliated) stained area” value is reported as “significantly attenuated” and the “MUC5AC+ stained area (goblet cells)” value is reported as “significantly attenuated”. Moreover, in data set [1], the “effect on vascular smooth muscle in vitro” value is reported as “relax”. Besides, the pulmonary artery pressure result in data set [2] is reported as “paradoxical increase”.
With `O=C(Nc1ccc([N+](=O)[O-])cc1Cl)c1cc(Cl)ccc1O` [niclosamide], in the data set with HBE cells (non-CF) (10 µM, within 30 min of addition), the “reduction in the baseline ISC” value is listed as roughly 90%. In the data set with HBE cells (non-CF), the “Inh172-sensitive ISC” value was “attenuated”, the “amiloride-sensitive current / magnitude of response to amiloride” value is reported as “attenuated”, the forskolin-stimulated current entry is reported as “attenuated” and the “change in transepithelial resistance” value is −174 ± 19 Ω cm^2. The “UTP-stimulated increase in [Ca2+]i” value with FRT-TMEM16Aabc cells is recorded as “significantly attenuated”. Further, the “effect on TMEM16Aacd currents” value at hTMEM16Aacd (HEK cells, [Ca2+]i clamped at 415 nM, bell shaped concentration response) is on record as “enhancement of currents at low µM”. Also, on hTMEM16Aacd (HEK-TMEM16Aacd cells, [Ca2+]i clamped to 0 nM (TMEM16A not activated), read-out: EC50, concentration-dependent increase in current), the EC50 came to 2.7 ± 0.3 µM. At hTMEM16Aacd ([Ca2+]i clamped to 0 nM), the “reversal potential of induced current” value was “approximately −50 mV”. In the data set with HBE cells, the “acetylated α-tubulin (ciliated) stained area” value is “significantly attenuated” and the “MUC5AC+ stained area (goblet cells)” value is recorded as “significantly attenuated”. For the same molecule, in the data set with HBE cells (by 48 h after initiating treatment, media on mucosal surface), the air-liquid interface integrity result is listed as “compromised”. The “relaxation of human bronchial smooth muscle” value in data set [3] (ref Danahay et al., 2020b) is recorded as “confirmed”. Besides, in data set [3] (ref Miner et al., 2019), the “effect on freshly isolated human bronchial smooth muscle” value is recorded as “relax”. The “effect on currents in parental HEK cell line” value with HEK293 cells is on record as “Quantitatively similar effects”.
